In patent publication US6713474B2, “Pyrrolopyrimidines as therapeutic agents” (Abbott GmbH & Co. KG, priority 1998, dated 2004):

| melting point | Compound |
| --- | --- |
| 163 to 164 °C | CC(C(=O)NCCN(C)C)n1cc(-c2ccc(Oc3ccccc3)cc2)c2c(N)ncnc21 (stereo not shown) [Example 149, N-(2-Dimethylaminoethyl)-2-[4-amino-5-(4-phenoxyphenyl)-7H-pyrrolo[2,3-d]pyrimidin-7-yl)propionamide] |
| 138 to 140 °C | Nc1ncnc2c1c(-c1ccc(Oc3ccccc3)cc1)cn2CC(=O)NCCN1CCNCC1 [Example 152, N-[2-(Piperazin-1-yl)ethyl]-2-[4-amino-5-[4-phenoxyphenyl)-7H-pyrrolo[2,3-d]-pyrimidin-7-yl]acetamide] |
| 252 to 254 °C | Nc1ncnc2c1c(-c1ccc(Oc3ccccc3)cc1)cn2C1CCC(=O)CC1 [Example 175, 4-[4-Amino-5-(4-phenoxyphenyl)-7H-pyrrolo[2,3-d]pyrimidin-7-yl]cyclohexanone] |
| 110 °C | N#Cc1c(OCCN2CCOCC2)cccc1Oc1ccc(-c2cn(C3CCOCC3)c3ncnc(N)c23)cc1 [Example 50, 2-(4-(4-Amino-7-(4-tetrahydropyranyl)-7H-pyrrolo[2,3-d]pyrimidin-5-yl)phenoxy]-6-(2-morpholinoethoxy)benzonitrile] |
| 196 to 196.5 °C | Nc1ncnc2c1c(-c1ccc(Oc3ccccc3)cc1)cn2C1CCOC1 (stereo not shown) [Example 22, 5-(4-Phenoxyphenyl)-7-(3-tetrahydrofuryl)-7H-pyrrolo[2,3-d]pyrimidin-4-ylamine] |
| 168 to 170 °C (dec.) | CN1CCN(C2CCC(n3cc(-c4ccc(Oc5ccccc5)cc4)c4c(N)ncnc43)C2)CC1.O=C(O)/C=C\C(=O)O.O=C(O)/C=C\C(=O)O.O=C(O)/C=C\C(=O)O (stereo not shown) (hydrate or solvate) |
| 122 to 122.5 °C | CCN1CCCC1CNC(=O)Cn1cc(-c2ccc(Oc3ccccc3)cc2)c2c(N)ncnc21 (stereo not shown) [Example 155, N-(N-Ethylpyrrolidin-2-ylmethyl)-2-[4-amino-5-(4-phenoxyphenyl)-7H-pyrrolo[2,3-d]-pyrimidin-7-yl]acetamide] |
| 183 to 184 °C | COCCCNc1cccc(Oc2ccc(-c3cn(C4CCOC4)c4ncnc(N)c34)cc2)c1C#N (stereo not shown) [Example 41, 2-[4-(4-Amino-7-(3-tetrahydrofuryl)-7H-pyrrolo[2,3-d]pyrimidin-5-yl)phenoxy]-6-(3-methoxypropylamino)benzonitrile] |
| 198 to 199 °C | Nc1ncnc2c1c(-c1ccc(Oc3ccc(F)cc3)cc1)cn2C1CCOC1 (stereo not shown) [Example 35, 5-[4-(4-Fluorophenoxy)phenyl]-7-(3-tetrahydrofuryl)-7H-pyrrolo[2,3-d]pyrimidin-4-ylamine] |
| 304 to 306 °C (dec.) | CN1CCN([C@H]2CCC[C@H](n3cc(-c4ccc(Oc5ccccc5)cc4)c4c(N)ncnc43)C2)CC1.Cl.Cl.Cl (relative stereo) (hydrate or solvate) |
| 110 °C | N#Cc1c(NCCCn2ccnc2)cccc1Oc1ccc(-c2cn(C3CCOC3)c3ncnc(N)c23)cc1 (stereo not shown) [Example 39, 2-[4-(4-Amino-7-(3-tetrahydrofuryl)-7H-pyrrolo[2,3-d]pyrimidin-5-yl)phenoxy]-6-(3-imidazol-1-yl)propylaminobenzonitrile] |
| 185 to 187 °C | Nc1ncnc2c1c(-c1ccc(Oc3ccccc3C=O)cc1)cn2C1CCOC1 (stereo not shown) [Example 29, 2-[4-(4-Amino-7-(3-tetrahydrofuryl)-7H-pyrrolo[2,3-d)pyrimidin-5-yl)phenoxy]benzaldehyde] |
| 66 to 68 °C | COCCNCc1ccccc1Oc1ccc(-c2cn(C3CCOC3)c3ncnc(N)c23)cc1 (stereo not shown) [Example 33, 5-{4-[2-(2-Methoxyethyl)aminomethylphenoxy]phenyl}-7-(3-tetrahydrofuryl)-7H-pyrrolo[2,3-d]-pyrimidin-4-ylamine] |
| 224.5 to 226.5 °C (dec.) | CN1CCN([C@@H]2CCC[C@H](n3cc(-c4ccc(Oc5ccccc5)cc4)c4c(N)ncnc43)C2)CC1.Cl.Cl.Cl (relative stereo) |
| 168 to 170 °C | CC(C)(C)OC(=O)N1CCC(n2cc(-c3ccc(Oc4ccccc4)cc3)c3c(N)ncnc32)C1 (stereo not shown) [Example 203, tert-Butyl 3-[4-Amino-5-(4-phenoxyphenyl)-7H-pyrrolo[2,3-d]pyrimidin-7-yl]-1-pyrrolidinecarboxylate] |
| 146 to 148 °C | COc1cc(-c2cn([C@H]3CC[C@H](N4CCN(C)CC4)CC3)c3ncnc(N)c23)ccc1NC(=O)OCc1ccccc1.O=C(O)/C=C\C(=O)O.O=C(O)/C=C\C(=O)O.O=C(O)/C=C\C(=O)O |
| 242 to 242.5 °C | N#Cc1cccnc1-n1cc(-c2ccc(Oc3ccccc3)cc2)c2c(N)ncnc21 [Example 180, 2-[4-Amino-5-(4-phenoxyphenyl)-7H-pyrrolo[2,3-d]pyrimidin-7-yl]pyridine-3-carbonitrile] |
| 139 to 140 °C | CCOC(=O)C(C)n1cc(-c2ccc(Oc3ccccc3)cc2)c2c(N)ncnc21 (stereo not shown) [Example 148, Ethyl 2-[4-Amino-5-(4-phenoxyphenyl)-7H-pyrrolo[2,3-d]pyrimidin-7-yl]propionate] |
| 298 °C (dec.) | Cl.Cl.Nc1ncnc2c1c(-c1ccc(Oc3ccccc3)cc1)cn2C1CCNC1 (stereo not shown) (hydrate or solvate) |
| 188 to 188.5 °C | Nc1ncnc2c1c(-c1ccc(Oc3ccccc3)cc1)cn2S(=O)(=O)C1CCCC1 [Example 168, 7-Cyclopentanesulphonyl-5-(4-phenoxyphenyl)-7H-pyrrolo[2,3-d]pyrimidin-4-ylamine] |
| 142 to 144 °C | Nc1ncnc2c1c(-c1ccc(Oc3ccc(CN4CCOCC4)cc3)cc1)cn2C1CCOC1 (stereo not shown) [Example 36, 5-[4-(4-Morpholinomethylphenoxy)-phenyl]-7-(3-tetrahydrofuryl)-7H-pyrrolo[2,3-d]pyrimidin-4-ylamine] |
| 107 to 110 °C | CCN(CC)Cc1ccccc1Oc1ccc(-c2cn(C3CCOC3)c3ncnc(N)c23)cc1 (stereo not shown) [Example 27, 2-[4-(4-Amino-7-(3-tetrahydrofuryl)-7H-pyrrolo[2,3-d]pyrimidin-5-yl)phenoxy]-N,N-diethylbenzylamine] |
| 199 to 200 °C | Nc1ncnc2c1c(-c1ccc(Oc3ccccc3)cc1)cn2C1CCC(O)CC1 (stereo not shown) [Example 243, 4-[4-Amino-5-(4-phenoxyphenyl)-7H-pyrrolo[2,3-d]pyrimidin-7-yl]cyclohexanol] |
| 208 °C (dec.) | Cl.Cl.Nc1ncnc2c1c(-c1ccc(Oc3ccccc3)cc1)cn2C1CNOC1 (stereo not shown) |
| 284 to 285 °C | Cl.NCCn1cc(-c2ccc(Oc3ccccc3)cc2)c2c(N)ncnc21 |
